Five compounds from article PMC6458995, “MAP4K4 Inhibition Promotes Survival of Human Stem Cell-Derived Cardiomyocytes and Reduces Infarct Size In Vivo” (Cell Stem Cell, 2019) can be followed below.

Each structure is given as a SMILES string.

Common to all, as to assay: Dundee kinase panel
Holding throughout (assay type): biochemical
Conditions in all cases: for remaining activity at 1 µM: read-out: residual activity

The target of test [1] is T1, CK2 (Homo sapiens, UniProt P68400).
T1 construct: lines 1-140) and Reaction Biology
The protocol:
(§1) Compounds were screened at 1 μM. For key hits, pIC50 values were then determined by HTRF as above. […] Stability in mouse and human liver microsomes was determined by Cyprotex.

Test [2] deals with T2, EPH-B2 (Homo sapiens, UniProt P29323).
T2 construct: lines 1-140) and Reaction Biology
T2 sequence (P29323 19-1055): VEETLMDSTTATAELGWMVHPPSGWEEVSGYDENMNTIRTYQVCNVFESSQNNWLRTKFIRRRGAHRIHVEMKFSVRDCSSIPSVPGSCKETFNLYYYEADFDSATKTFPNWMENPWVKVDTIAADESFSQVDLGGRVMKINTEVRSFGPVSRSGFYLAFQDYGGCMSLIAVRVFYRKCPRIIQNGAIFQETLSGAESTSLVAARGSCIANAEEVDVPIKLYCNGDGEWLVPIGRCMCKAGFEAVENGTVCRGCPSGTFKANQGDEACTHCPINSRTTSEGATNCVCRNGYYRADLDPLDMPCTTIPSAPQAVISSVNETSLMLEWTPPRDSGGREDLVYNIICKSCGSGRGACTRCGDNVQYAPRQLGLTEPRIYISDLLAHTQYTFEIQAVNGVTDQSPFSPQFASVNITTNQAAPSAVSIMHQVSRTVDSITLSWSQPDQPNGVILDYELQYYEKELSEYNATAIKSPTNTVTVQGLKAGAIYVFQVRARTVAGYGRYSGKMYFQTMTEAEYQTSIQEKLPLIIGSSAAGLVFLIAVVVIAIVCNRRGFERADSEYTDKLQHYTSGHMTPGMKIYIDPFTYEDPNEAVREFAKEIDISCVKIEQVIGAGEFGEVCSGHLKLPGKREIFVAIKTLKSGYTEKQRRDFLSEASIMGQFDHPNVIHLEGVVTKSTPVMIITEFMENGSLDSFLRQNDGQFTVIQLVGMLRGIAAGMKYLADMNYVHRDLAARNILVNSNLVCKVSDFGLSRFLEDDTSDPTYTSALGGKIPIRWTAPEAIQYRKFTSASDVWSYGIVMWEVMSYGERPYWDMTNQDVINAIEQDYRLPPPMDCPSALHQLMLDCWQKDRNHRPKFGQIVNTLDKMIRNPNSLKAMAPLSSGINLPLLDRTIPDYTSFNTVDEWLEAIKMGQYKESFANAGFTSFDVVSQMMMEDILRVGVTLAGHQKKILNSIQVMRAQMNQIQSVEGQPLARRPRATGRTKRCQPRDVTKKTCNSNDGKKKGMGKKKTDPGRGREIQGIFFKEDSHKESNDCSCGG
On the procedure:
as §1

The target of test [3] is T3, IRR (Homo sapiens, UniProt P14616).
T3 construct: lines 1-140) and Reaction Biology
On the procedure: as §1

In test [4] the target is T4, LCK (Homo sapiens, UniProt P06239).
T4 construct: lines 1-140) and Reaction Biology
The protocol: as §1

The target of test [5] is T5, MKK6 (Homo sapiens, UniProt P52564).
T5 construct: lines 1-140) and Reaction Biology
T5 sequence (P52564 1-334): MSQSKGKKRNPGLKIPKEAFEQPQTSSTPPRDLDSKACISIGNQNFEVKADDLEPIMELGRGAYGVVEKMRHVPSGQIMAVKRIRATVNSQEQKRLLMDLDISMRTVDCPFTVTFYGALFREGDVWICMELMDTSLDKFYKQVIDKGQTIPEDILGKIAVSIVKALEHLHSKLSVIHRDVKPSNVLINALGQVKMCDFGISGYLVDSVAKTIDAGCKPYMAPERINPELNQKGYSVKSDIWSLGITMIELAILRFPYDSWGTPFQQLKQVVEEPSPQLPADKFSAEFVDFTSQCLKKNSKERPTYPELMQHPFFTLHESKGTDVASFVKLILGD
On the procedure:
as §1

Test [6] deals with T6, PAK6 (Homo sapiens, UniProt Q9NQU5).
T6 construct: lines 1-140) and Reaction Biology
On the procedure:
as §1

The target of test [7] is T7, PKBa (Homo sapiens, UniProt P31749).
T7 construct: lines 1-140) and Reaction Biology
On the procedure:
as §1

For test [8], the target named is T8, PRAK (Homo sapiens, UniProt Q8IW41).
T8 construct: lines 1-140) and Reaction Biology
T8 sequence (Q8IW41 1-473): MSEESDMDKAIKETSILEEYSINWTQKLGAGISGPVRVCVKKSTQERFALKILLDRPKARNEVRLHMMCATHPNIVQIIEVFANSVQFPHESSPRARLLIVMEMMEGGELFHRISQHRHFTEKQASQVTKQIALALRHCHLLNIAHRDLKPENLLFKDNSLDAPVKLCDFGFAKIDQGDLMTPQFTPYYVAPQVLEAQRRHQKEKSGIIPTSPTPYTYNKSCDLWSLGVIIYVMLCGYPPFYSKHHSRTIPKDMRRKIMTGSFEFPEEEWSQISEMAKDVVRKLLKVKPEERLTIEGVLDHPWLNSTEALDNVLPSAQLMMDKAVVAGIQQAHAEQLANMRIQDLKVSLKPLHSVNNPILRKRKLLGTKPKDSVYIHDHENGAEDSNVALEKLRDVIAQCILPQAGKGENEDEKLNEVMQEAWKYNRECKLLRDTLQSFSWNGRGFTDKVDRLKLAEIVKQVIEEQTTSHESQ
On the procedure: as §1

Test [9] has as its target T9, TLK1 (Homo sapiens, UniProt Q9UKI8).
T9 construct: lines 1-140) and Reaction Biology
T9 sequence (Q9UKI8 1-766): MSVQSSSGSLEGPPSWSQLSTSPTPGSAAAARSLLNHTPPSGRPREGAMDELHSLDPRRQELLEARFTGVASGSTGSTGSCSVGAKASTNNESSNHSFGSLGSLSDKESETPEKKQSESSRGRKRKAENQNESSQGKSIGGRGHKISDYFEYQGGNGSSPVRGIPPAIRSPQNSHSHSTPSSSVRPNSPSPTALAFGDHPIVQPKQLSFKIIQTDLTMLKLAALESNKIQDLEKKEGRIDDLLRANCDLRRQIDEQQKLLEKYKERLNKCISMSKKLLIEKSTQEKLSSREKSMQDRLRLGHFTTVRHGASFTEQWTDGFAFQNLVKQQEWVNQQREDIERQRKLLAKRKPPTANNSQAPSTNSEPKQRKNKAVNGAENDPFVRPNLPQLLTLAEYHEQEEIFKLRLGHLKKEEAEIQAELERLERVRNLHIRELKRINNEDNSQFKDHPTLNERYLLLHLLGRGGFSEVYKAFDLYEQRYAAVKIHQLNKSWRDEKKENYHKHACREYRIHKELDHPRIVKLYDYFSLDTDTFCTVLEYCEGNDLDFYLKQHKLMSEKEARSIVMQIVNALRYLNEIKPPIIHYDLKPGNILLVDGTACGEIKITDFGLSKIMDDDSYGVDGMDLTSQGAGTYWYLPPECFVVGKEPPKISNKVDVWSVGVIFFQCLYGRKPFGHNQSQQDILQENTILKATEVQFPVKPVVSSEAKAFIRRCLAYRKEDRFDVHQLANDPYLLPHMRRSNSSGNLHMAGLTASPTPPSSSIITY
The protocol:
as §1

T4 sequence (P06239 whole entry): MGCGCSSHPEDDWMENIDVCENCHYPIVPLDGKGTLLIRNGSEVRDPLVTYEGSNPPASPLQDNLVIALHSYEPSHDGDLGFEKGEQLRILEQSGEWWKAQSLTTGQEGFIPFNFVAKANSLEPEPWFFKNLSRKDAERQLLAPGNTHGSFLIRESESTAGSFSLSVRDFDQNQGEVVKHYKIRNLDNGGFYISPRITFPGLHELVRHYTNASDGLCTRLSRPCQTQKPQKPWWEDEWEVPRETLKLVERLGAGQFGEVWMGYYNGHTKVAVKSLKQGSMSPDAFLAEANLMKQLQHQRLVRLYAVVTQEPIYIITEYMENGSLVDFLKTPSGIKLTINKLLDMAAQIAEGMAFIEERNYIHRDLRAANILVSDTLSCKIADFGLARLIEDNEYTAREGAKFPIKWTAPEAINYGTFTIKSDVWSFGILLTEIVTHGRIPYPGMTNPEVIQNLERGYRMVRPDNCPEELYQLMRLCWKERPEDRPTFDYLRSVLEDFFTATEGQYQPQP
T6 sequence (Q9NQU5 whole entry): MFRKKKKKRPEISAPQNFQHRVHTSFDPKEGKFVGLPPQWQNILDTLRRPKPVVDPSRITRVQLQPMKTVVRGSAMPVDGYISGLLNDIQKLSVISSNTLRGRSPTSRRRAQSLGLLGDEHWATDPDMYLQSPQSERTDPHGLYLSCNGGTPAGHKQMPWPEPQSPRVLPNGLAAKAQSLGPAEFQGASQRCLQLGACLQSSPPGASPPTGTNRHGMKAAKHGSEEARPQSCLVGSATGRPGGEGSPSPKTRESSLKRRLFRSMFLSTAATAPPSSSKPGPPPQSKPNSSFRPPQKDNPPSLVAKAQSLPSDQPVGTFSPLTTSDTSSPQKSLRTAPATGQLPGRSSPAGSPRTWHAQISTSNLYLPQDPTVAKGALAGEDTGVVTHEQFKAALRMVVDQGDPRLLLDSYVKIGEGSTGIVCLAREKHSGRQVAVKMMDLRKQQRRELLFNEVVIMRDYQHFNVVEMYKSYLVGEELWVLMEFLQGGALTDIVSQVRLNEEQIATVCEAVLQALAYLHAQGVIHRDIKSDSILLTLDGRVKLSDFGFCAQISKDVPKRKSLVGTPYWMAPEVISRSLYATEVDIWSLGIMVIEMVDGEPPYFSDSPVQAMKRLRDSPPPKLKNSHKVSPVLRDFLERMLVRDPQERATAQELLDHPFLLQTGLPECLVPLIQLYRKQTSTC
T1 sequence (P68400 whole entry): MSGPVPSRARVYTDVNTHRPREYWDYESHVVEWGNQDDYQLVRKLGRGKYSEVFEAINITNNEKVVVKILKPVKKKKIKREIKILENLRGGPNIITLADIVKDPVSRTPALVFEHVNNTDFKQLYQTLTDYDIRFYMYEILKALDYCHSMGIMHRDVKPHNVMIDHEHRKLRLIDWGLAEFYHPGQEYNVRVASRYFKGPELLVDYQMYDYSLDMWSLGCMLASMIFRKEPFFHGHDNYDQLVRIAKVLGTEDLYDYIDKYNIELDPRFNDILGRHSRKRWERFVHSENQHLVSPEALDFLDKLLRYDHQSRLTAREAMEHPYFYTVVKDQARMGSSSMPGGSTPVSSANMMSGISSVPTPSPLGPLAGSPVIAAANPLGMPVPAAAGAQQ
T3 sequence (P14616 27-1297): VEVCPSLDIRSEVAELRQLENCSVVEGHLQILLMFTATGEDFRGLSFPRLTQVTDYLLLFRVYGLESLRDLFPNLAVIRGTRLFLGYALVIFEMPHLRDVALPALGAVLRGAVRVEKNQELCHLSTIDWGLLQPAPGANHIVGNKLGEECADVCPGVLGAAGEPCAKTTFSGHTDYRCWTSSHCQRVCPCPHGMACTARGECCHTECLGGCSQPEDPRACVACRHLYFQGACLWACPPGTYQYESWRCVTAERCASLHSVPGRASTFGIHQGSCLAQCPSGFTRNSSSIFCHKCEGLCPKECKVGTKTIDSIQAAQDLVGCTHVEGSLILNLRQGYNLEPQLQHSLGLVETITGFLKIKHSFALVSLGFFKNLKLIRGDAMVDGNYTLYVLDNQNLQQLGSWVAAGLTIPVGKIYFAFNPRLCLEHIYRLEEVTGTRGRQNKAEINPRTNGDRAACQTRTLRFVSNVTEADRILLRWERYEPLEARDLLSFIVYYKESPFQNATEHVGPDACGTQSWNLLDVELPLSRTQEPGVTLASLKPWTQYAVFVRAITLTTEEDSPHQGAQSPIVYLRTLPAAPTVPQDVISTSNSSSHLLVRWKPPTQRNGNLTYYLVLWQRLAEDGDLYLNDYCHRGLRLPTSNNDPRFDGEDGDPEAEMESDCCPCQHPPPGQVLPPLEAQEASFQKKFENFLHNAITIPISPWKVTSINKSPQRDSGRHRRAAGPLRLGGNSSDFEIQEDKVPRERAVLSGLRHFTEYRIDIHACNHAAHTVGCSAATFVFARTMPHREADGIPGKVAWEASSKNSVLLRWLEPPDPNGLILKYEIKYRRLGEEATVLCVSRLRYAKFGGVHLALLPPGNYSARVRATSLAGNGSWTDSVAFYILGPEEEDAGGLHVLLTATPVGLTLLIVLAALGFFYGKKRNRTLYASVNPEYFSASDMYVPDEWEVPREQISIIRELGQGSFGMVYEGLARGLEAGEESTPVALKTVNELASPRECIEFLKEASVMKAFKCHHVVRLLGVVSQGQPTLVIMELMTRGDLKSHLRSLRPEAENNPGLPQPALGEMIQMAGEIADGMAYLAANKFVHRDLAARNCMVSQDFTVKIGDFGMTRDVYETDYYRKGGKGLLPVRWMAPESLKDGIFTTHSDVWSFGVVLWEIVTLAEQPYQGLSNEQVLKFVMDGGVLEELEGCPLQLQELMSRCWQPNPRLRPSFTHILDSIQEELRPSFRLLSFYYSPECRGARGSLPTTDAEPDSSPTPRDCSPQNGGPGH
T7 sequence (P31749 whole entry): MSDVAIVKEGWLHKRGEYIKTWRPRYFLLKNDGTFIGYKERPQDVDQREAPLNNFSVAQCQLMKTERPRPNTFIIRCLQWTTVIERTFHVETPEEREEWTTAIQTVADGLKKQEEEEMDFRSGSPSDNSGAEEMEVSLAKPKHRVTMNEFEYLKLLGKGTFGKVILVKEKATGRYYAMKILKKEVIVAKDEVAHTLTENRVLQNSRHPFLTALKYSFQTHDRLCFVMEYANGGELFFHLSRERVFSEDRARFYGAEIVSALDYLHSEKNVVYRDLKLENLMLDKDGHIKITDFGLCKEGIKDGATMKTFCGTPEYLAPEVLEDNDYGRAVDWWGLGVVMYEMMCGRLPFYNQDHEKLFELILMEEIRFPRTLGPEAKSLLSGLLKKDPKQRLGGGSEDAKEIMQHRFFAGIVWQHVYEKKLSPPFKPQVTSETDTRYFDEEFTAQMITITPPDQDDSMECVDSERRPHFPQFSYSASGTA

Turning to `Oc1ncnc2c1c(-c1ccccc1)cn2-c1ccccc1` [F1386-0303, 5,7-diphenyl-7H-pyrrolo[2,3-d]pyrimidin-4-ol], the remaining activity at 1 µM came out at 77% in test [1]; 78% in test [2]; 95% in test [3]; 112% in test [4]; 105% in test [5]; 105% in [6]. Besides, the remaining activity at 1 µM came to 117% in test [7], 113% in [8] and 103% in test [9].

Regarding `O=C1Cc2c([nH]c3ccc(Br)cc23)-c2ccccc2N1` [Kenpaullone], the remaining activity at 1 µM stood at 90% in [1]; 99% in test [2]; 89% in test [3]; 102% in test [5]; 32% in test [6]; 95% in test [7]. Moreover, the remaining activity at 1 µM in test [8] and in test [9] was 95% in each case.

On to `COCCOc1ccc(-c2cn(-c3ccccc3)c3nc[nH]c(=O)c23)cc1` [DMX-5804, 5-[4-(2-methoxy-ethoxy)-phenyl]-7-phenyl-3,7-dihydro-pyrrolo[2,3-d]pyrimidin-4-one], for which the remaining activity at 1 µM in test [1] was determined as 104%; in test [2], 102%; in test [3], 96%; in [4], 109%; in test [5], 112%; in test [6], 118%. Also, the remaining activity at 1 µM stood at 116% in test [7], 92% in test [8] and 111% in test [9].

Regarding `O=C1Nc2ccc(I)cc2/C1=C/c1cc(Br)c(O)c(Br)c1` [GW5074], the remaining activity at 1 µM in test [1] stood at 72%; in test [2] it was 94%; in [3], 61%; in [4], 58%; in test [5], 81%; in [6] it was 95%. Besides, the remaining activity at 1 µM was determined as 93% in test [7], 93% in [8] and 86% in test [9].

In the case of `Nc1ncc(C(=O)NC2CN(C(=O)C3CC3)C2)c2ccc(-c3cccc(F)c3)nc12` [GNE-495], the residual activity in test [1] (1 μM) is 93%; in test [2] (1 μM), 102%; in test [3] (1 μM), 83%; in test [4] (1 μM) it was 104%; in [5] (1 μM), 97%; in test [6] (1 μM) it was 64%. Moreover, the residual activity in test [7] (1 μM) was 105%; in test [8] (1 μM) it was 91%; in test [9] (1 μM) it was 77%.
